Experimental data as given in ChEMBL document CHEMBL5257080, “Optimization of physicochemical properties of pyrrolidine GPR40 AgoPAMs results in a differentiated profile with improved pharmacokinetics and reduced off-target activities” (Bioorg Med Chem, 2023).
In brackets after ≈: the same amount, converted by molar mass. Activity calls are given as the source filed them. No cut-off for these calls is given here.

Tests used:
[1] = target: T1, Free fatty acid receptor 1 (Homo sapiens, UniProt O14842); assay: Positive allosteric modulation of human GPR40 by calcium based FLIPR analysis
[2] = target: T1, Free fatty acid receptor 1; assay: Positive allosteric modulation of human GPR40 expressed in HEK293 cells assessed as cAMP accumulation; format: cell-based
[3] = Lipophilicity, logD of compound; format: physicochemical; details: octanol/water
[4] = target: Free fatty acid receptor 1 (Mus musculus, UniProt Q76JU9); assay: Positive allosteric modulation of mouse GPR40
[5] = Metabolic stability in mouse liver microsome assessed as parent compound remaining after 10 mins; format: ADME; details: liver microsomes, read-out: Stability
[6] = Cmax in mouse at 1 mg/kg; format: ADME, organism-based; set-up: dose 1 mg/kg; details: in vivo
[7] = AUC (0-7hrs) in mouse at 1 mg/kg; format: ADME, organism-based; set-up: dose 1 mg/kg; details: in vivo
[8] = Metabolic stability in human liver microsome assessed as parent compound remaining after 10 mins; format: ADME; details: liver microsomes, read-out: Stability
[9] = Metabolic stability in rat liver microsome assessed as parent compound remaining after 10 mins; format: ADME; details: liver microsomes, read-out: Stability
[10] = Plasma protein binding in mouse assessed as fraction unbound; format: ADME, cell-free
[11] = Plasma protein binding in human assessed as fraction unbound; format: ADME, cell-free
[12] = Cmax in rat at 1 mg/kg, po; format: ADME, organism-based; set-up: dose 1 mg/kg, route po; details: in vivo
[13] = Cmax in mouse at 1 mg/kg, po; format: ADME, organism-based; set-up: dose 1 mg/kg, route po; details: in vivo
[14] = Total AUC in mouse at 1 mg/kg, po; format: ADME, organism-based; set-up: dose 1 mg/kg, route po; details: in vivo
[15] = Total AUC in rat at 1 mg/kg, po; format: ADME, organism-based; set-up: dose 1 mg/kg, route po; details: in vivo
[16] = Half life in mouse at 3 mg/kg, iv; format: ADME, organism-based; details: in vivo
[17] = Half life in rat at 3 mg/kg, iv; format: ADME, organism-based; details: in vivo
[18] = Volume of distribution at steady state in mouse at 3 mg/kg, iv; format: ADME, organism-based; details: in vivo, read-out: Vdss
[19] = Volume of distribution at steady state in rat at 3 mg/kg, iv; format: ADME, organism-based; details: in vivo, read-out: Vdss
[20] = Clearance in mouse at 3 mg/kg, iv; format: ADME, organism-based; details: in vivo
[21] = Clearance in rat at 3 mg/kg, iv; format: ADME, organism-based; details: in vivo
[22] = Oral bioavailability in mouse at 1 mg/kg; format: ADME, organism-based; details: in vivo
[23] = Oral bioavailability in rat at 1 mg/kg; format: ADME, organism-based; details: in vivo
Rattus norvegicus [24] = assay: Anti-hyperglycemic activity against Sprague-Dawley rat assessed as reduction in plasma glucose level at 3 mg/kg, po measured for 20 to 120 mins by OGTT analysis; format: functional, organism-based; details: time lower 20.0 min, time upper […]
Rattus norvegicus [25] = assay: Anti-hyperglycemic activity against Sprague-Dawley rat assessed as reduction in plasma glucose AUC at 0.3 mg/kg, po measured for 20 to 120 mins by OGTT analysis; format: functional, organism-based; details: time lower 20.0 min, time upper […]
Rattus norvegicus [26] = assay: Anti-hyperglycemic activity against Sprague-Dawley rat assessed as reduction in plasma glucose AUC at 0.3 mg/kg, po measured for 20 to 120 mins in presence of BMS-538305 by OGTT analysis; format: functional; set-up: scale not given: the % may be the effect or the level left; details: time 20-120 min
Rattus norvegicus [27] = assay: Anti-hyperglycemic activity against Sprague-Dawley rat assessed as reduction in plasma glucose AUC at 0.3 mg/kg, po measured at 3 hrs in presence of BMS-538305 by OGTT analysis; format: functional; set-up: scale not given: the % may be the effect or the level left
Mus musculus [28] = species on record: Mus musculus; assay: Anti-hyperglycemic activity in wild type mouse assessed as reduction in plasma glucose level by OGTT analysis; format: functional, organism-based
Mus musculus [29] = species on record: Mus musculus; assay: Anti-hyperglycemic activity in GPR40 knockout mouse assessed as reduction in plasma glucose level by OGTT analysis; format: functional, organism-based
Cytochrome P450 2B6 = target: T2, Cytochrome P450 2B6 (Homo sapiens, UniProt P20813); assay: Inhibition of CYP2B6 in human liver microsomes; format: ADME, Microsome
T2 sequence (P20813 whole entry): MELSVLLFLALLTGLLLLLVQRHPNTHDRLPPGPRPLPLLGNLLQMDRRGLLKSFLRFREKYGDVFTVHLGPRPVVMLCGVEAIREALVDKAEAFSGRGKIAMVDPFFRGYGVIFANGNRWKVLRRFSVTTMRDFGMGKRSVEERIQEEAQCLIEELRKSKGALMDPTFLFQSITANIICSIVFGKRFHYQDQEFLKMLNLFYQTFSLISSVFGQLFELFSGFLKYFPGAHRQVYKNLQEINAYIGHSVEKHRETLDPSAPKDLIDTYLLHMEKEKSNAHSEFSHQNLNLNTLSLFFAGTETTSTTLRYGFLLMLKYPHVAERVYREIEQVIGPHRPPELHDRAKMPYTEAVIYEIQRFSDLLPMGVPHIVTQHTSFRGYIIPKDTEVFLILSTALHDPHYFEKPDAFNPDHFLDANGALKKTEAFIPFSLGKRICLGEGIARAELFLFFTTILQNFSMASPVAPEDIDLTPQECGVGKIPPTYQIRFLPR

Cytochrome P450 2C8 = target: T3, Cytochrome P450 2C8 (Homo sapiens, UniProt P10632); assay: Inhibition of CYP2C8 in human liver microsomes; format: ADME, Microsome
T3 sequence (P10632 whole entry): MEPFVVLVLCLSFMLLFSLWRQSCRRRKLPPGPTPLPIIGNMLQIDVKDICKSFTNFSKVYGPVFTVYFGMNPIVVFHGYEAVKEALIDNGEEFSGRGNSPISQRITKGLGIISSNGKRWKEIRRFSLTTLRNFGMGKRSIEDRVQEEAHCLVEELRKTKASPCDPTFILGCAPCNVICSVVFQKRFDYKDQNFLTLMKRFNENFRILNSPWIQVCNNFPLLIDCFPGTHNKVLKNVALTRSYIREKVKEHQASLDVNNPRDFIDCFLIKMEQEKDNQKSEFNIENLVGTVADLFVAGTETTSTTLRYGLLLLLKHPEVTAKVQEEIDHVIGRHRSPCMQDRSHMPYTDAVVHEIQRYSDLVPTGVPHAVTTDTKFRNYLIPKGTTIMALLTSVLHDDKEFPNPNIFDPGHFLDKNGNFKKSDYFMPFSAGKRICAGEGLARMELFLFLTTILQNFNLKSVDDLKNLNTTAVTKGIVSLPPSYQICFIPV

Cytochrome P450 2C9 = Cytochrome P450 2C9 (Homo sapiens, UniProt P11712); assay: Inhibition of CYP2C9 in human liver microsomes; format: ADME, Microsome
Cytochrome P450 2C19 = Cytochrome P450 2C19 (Homo sapiens, UniProt P33261); assay: Inhibition of CYP2C19 in human liver microsomes; format: ADME, Microsome
Cytochrome P450 2D6 = Cytochrome P450 2D6 (Homo sapiens, UniProt P10635); assay: Inhibition of CYP2D6 in human liver microsomes; format: ADME, Microsome
Cytochrome P450 3A4 = Cytochrome P450 3A4 (Homo sapiens, UniProt P08684); assay: Inhibition of CYP3A4 in human liver microsomes; format: ADME, Microsome
[30] = Permeability of compound across apical to basolateral side in dog MDCK cells; format: ADME, cell-based, Canis lupus familiaris; details: read-out: permeability
[31] = Solubility in phosphate buffer at pH 6.5; format: physicochemical
[32] = Solubility of the compound in FaSSIF at pH 6.5; format: ADME
[33] = Solubility of the compound in FeSSIF at pH 6.5; format: ADME
[34] = Solubility of the compound in FeSSIF at pH 5; format: ADME
[35] = Tmax in rat at 12 mg/kg qd; format: ADME, organism-based; details: in vivo
[36] = Tmax in rat at 60 mg/kg qd; format: ADME, organism-based; details: in vivo
[37] = Tmax in rat at 300 mg/kg qd; format: ADME, organism-based; details: in vivo
[38] = Cmax in rat at 12 mg/kg qd; format: ADME, organism-based; set-up: dose 12 mg/kg; details: in vivo
[39] = Cmax in rat at 60 mg/kg qd; format: ADME, organism-based; set-up: dose 60 mg/kg; details: in vivo
[40] = Cmax in rat at 300 mg/kg qd; format: ADME, organism-based; set-up: dose 300 mg/kg; details: in vivo
[41] = AUC (0 to 24 hrs) in rat at 12 mg/kg qd; format: ADME, organism-based; set-up: dose 12 mg/kg; details: in vivo
[42] = AUC (0 to 24 hrs) in rat at 60 mg/kg qd; format: ADME, organism-based; set-up: dose 60 mg/kg; details: in vivo
[43] = AUC (0 to 24 hrs) in rat at 300 mg/kg qd; format: ADME, organism-based; set-up: dose 300 mg/kg; details: in vivo
[44] = AUC (0 to 24 hrs) in rat at 100 mg/kg, po qd; format: ADME, organism-based; set-up: dose 100 mg/kg, route po; details: in vivo
Rattus norvegicus [45] = assay: Hyperglycemic activity in Sprague-Dawley rat assessed as effect on blood glucose level at 30 to 100 mg/kg, qd by glucometer; format: functional, organism-based; details: dose 30-100 mg/kg
[46] = Toxicity in rat assessed as NOAEL by measuring AUC (0 to 24 hrs) measured for 28 days; details: in vivo, time 28 day
[47] = Toxicity in rat assessed as vacuolation in pancrease at 100 mg/kg measured for 28 days; format: organism-based; details: in vivo, time 28 day
[48] = Toxicity in rat assessed as reduction in cell size at 100 mg/kg measured for 28 days; format: organism-based; details: in vivo, time 28 day
[49] = Toxicity in rat assessed as reduction in cell number at 100 mg/kg measured for 28 days; format: organism-based; details: in vivo, time 28 day
[50] = Toxicity in rat assessed as NOAEL at 100 mg/kg measured for 28 days; format: organism-based; details: in vivo, time 28 day

T1 sequence (O14842 whole entry): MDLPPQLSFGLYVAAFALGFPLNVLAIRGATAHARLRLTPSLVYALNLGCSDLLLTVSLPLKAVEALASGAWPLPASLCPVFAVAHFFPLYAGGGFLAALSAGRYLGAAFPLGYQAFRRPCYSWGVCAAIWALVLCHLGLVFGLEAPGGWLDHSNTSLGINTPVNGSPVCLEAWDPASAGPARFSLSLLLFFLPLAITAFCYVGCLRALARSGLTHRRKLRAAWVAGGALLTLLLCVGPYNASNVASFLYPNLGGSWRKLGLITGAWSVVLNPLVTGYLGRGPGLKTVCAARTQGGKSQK
Sequence of Cytochrome P450 2C9 (P11712 whole entry): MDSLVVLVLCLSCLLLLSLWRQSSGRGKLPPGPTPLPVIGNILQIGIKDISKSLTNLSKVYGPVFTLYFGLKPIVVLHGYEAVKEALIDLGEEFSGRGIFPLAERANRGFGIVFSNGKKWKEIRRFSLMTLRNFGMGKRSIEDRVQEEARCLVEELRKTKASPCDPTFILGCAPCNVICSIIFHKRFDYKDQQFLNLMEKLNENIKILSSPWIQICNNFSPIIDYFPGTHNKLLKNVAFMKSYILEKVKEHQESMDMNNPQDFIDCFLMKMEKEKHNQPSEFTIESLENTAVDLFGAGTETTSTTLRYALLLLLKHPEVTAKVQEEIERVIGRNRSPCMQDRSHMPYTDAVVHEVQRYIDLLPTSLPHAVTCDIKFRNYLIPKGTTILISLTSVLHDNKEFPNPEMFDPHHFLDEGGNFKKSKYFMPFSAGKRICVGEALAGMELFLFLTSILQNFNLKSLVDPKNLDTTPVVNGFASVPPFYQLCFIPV
Sequence of Cytochrome P450 2D6 (P10635 whole entry): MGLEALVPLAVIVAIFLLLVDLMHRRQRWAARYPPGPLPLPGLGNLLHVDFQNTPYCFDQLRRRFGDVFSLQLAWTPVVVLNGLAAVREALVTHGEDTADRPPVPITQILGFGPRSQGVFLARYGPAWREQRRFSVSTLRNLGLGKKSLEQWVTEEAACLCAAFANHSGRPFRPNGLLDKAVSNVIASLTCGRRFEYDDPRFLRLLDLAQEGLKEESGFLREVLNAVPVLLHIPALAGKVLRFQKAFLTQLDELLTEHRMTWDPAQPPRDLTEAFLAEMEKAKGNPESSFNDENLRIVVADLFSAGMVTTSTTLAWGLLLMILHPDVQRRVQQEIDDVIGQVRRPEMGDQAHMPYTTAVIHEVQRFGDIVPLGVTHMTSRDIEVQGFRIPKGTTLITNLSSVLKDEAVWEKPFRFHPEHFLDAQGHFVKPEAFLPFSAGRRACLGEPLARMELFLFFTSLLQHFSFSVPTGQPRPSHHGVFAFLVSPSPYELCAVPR
Sequence of Cytochrome P450 2C19 (P33261 whole entry): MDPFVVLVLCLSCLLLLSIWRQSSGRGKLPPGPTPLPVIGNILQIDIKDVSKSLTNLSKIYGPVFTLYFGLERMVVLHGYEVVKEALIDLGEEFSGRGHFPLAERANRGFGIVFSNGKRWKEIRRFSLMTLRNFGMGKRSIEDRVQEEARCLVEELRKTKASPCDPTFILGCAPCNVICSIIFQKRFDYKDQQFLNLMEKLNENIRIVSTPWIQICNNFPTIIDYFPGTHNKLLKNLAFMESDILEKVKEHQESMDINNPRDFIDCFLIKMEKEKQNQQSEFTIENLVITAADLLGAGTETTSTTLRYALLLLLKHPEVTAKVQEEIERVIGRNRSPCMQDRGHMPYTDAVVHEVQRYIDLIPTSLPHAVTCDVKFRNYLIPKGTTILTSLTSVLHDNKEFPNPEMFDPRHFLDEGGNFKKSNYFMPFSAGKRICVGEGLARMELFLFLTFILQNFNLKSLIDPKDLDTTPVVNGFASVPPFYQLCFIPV
Sequence of Cytochrome P450 3A4 (P08684 whole entry): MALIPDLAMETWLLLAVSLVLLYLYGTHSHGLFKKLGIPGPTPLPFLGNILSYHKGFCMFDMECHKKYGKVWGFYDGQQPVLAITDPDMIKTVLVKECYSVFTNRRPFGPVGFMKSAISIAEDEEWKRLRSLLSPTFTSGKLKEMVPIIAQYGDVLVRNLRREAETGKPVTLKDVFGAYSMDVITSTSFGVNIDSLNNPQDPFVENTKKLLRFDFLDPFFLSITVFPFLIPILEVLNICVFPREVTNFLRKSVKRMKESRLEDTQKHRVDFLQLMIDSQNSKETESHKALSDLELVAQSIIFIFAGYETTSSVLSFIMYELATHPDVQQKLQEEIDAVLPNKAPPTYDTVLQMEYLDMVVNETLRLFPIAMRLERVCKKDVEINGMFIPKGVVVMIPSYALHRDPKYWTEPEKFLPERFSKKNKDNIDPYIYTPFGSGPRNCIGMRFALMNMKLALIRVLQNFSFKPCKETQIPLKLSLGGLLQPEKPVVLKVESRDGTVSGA
Sequence of Free fatty acid receptor 1 (Mus musculus, UniProt Q76JU9) (Q76JU9 whole entry): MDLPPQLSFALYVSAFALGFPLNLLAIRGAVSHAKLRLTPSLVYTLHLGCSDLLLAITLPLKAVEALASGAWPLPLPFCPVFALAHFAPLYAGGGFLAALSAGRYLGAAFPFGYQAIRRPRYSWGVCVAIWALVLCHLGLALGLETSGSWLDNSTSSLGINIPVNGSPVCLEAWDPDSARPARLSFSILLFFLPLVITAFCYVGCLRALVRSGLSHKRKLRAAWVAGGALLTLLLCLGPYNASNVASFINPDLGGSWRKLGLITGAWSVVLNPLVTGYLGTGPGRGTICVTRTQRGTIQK

- EC50 [1]: 0.049 µM
- EC50 [2]: 1.8 µM
- logD [3]: 1.32
- EC50 [4]: 0.014 µM
- remaining at 10 min [5]: 79%
- Cmax [6]: 2.8 µM
- AUC(0-t) [7]: 4.4 µM·h
- remaining at 10 min [8]: 100%
- remaining at 10 min [9]: 77%
- Fu [10]: 0.9%
- Fu [11]: < 0.1%
- Cmax [12]: 1.6 µM
- Cmax [13]: 2.8 µM
- AUC [14]: 4.4 µM·h
- AUC [15]: 2.2 µM·h
- half-life [16]: 3.4 h
- half-life [17]: 3.6 h
- Vd [18]: 1.4 L/kg
- Vd [19]: 1.1 L/kg
- clearance [20]: 7.9 mL/min/kg
- clearance [21]: 5.9 mL/min/kg
- bioavailability [22]: 100%
- bioavailability [23]: 100%
- IC50 (Cytochrome P450 2B6): 29 µM
- IC50 (Cytochrome P450 2C8): 8.3 µM
- IC50 (Cytochrome P450 2C9): 34 µM
- IC50 (Cytochrome P450 2C19): 40 µM
- IC50 (Cytochrome P450 2D6): 40 µM
- IC50 (Cytochrome P450 3A4): 40 µM
- Papp A→B [30]: 24.3 ×10⁻⁶ cm/s
- solubility [31]: 28 µg/mL (≈ 49.8 µM)
- solubility [32]: 239 µg/mL (≈ 425 µM)
- solubility [33]: 1300 µg/mL (≈ 2320 µM)
- solubility [34]: 383 µg/mL (≈ 681 µM)
- Tmax [35]: 2 h
- Tmax [36]: 2 h
- Tmax [37]: 2 h
- Cmax [38]: 11 µM
- Cmax [39]: 49 µM
- Cmax [40]: 151 µM
- AUC [41]: 84 µM·h
- AUC [42]: 534 µM·h
- AUC [43]: 3150 µM·h
- AUC [44]: 1480 µM·h
SMILES: COCCCO[C@H]1CN(c2ccc(O[C@@H]3CCN(c4cc(OC)ncc4Cl)C[C@H]3C)cc2)[C@@H](CC(=O)O)[C@@H]1C
- Activity (Rattus norvegicus [24]): Active
- Activity (Rattus norvegicus [25]): inactive
- Activity (Rattus norvegicus [26]): 26%
- Activity (Rattus norvegicus [27]): 148%
- Activity (Mus musculus [28]): Active
- Activity (Mus musculus [29]): inactive
- Activity (Rattus norvegicus [45]): inactive
- AUC at […] [46]: 53 µM·h
- Activity [47]: Toxic
- Activity [48]: Non-Toxic
- Activity [49]: Non-Toxic
- Activity [50]: Non-Toxic
